Twelve compounds from patent publication US11795177B2, “Substituted quinoline analogs as aldehyde dehydrogenase 1A1 (ALDH1A1) inhibitors” (THE UNITED STATES OF AMERICA, AS REPRESENTED BY THE …, priority 2017, dated 2023) can be followed below.

SMILES strings stand for the structures.

One assay deals with T1, ALDH1A1 enzyme (Homo sapiens, UniProt P00352).
T1 sequence (P00352 1-501): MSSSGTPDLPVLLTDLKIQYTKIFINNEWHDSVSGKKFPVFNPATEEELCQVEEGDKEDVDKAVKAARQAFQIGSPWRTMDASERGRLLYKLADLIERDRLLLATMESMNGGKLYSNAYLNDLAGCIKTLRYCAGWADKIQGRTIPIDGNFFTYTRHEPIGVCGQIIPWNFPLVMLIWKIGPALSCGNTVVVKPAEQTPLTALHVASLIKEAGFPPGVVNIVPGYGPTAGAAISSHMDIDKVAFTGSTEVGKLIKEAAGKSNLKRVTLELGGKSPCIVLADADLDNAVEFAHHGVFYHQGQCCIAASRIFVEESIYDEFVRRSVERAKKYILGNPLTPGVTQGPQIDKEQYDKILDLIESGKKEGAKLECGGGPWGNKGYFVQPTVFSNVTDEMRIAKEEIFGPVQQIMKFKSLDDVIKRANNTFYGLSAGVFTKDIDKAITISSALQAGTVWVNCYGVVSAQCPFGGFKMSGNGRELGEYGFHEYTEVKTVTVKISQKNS
Description: ALDH1A1 enzymatic assay (in vitro). The assay is classed as biochemical. The conditions noted are these: ALDH1A1 enzyme 20 nM, NAD+ 1 mM, propionaldehyde 80 μM; read-out: ALDH1A1 IC50. In a few lines: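 ALDH1A1 (20 nM final) in 100 mM HEPES pH 7.5, 0.01% Tween 20 was preincubated 15 min at RT with compound (968 pM–57.2 μM final), then started with 1 mM NAD+ and 80 μM propionaldehyde. NADH fluorescence (ex 340/em 450 nm) followed kinetically for 10 min; change normalized to no-inhibitor and no-enzyme controls for percent inhibition and curve fitting.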

The subject of a further assay is MIA PaCa-2 cells. Kind of assay: MIA PaCa2 cell-based assay (1,536-well high-content imaging ALDEFLUOR assay). Further details: species or system human. The conditions noted are these: Homo sapiens, 0.5 h, ALDEFLUOR BAAA substrate 500 nM, 30 minutes. The procedure, abridged: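 MIA PaCa-2 cells (1,000/well), plated overnight, given BAAA substrate (500 nM) plus Hoechst 33342 (0.5 nM), then compound (16-point, 1.4 nM–47.8 μM final; 0.5% DMSO). After 30 min at 37° C, ALDH activity imaged by high-content microscopy as BAA-retaining (FITC) cells versus Hoechst-stained nuclei.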

Regarding `CS(=O)(=O)N1CCN(C(=O)c2cnc3ccc(F)cc3c2N2CCC3(CC2)OCCO3)CC1` [Example 52, (6-fluoro-4-(1,4-dioxa-8-azaspiro[4.5]decan-8-yl)quinolin-3-yl)(4-(methylsulfonyl)piperazin-1-yl)methanone], the IC50 at ALDH1A1 enzyme is less than 0.5 µM; in the assay on MIA PaCa-2 cells, 1 to 10 µM.

For `O=C(c1cnc2ccc(F)cc2c1N1CCC2(CC1)OCCO2)N1CCS(=O)(=O)CC1` [Example 53, (1,1-dioxidothiomorpholino)(6-fluoro-4-(1,4-dioxa-8-azaspiro[4.5]decan-8-yl)quinolin-3-yl)methanone], the results for the concentration for half-maximal inhibition (IC50) at ALDH1A1 enzyme and in the assay with MIA PaCa-2 cells were 0.5 to 1 µM and greater than 10 µM, respectively.

As to `CCOC(=O)N1CCN(C(=O)c2cnc3ccc(F)cc3c2N2CCC3(CC2)OCCO3)CC1` [Example 54, Ethyl 4-(6-fluoro-4-(1,4-dioxa-8-azaspiro[4.5]decan-8-yl)quinoline-3-carbonyl)piperazine-1-carboxylate], the results for the IC50 on ALDH1A1 enzyme and with MIA PaCa-2 cells were less than 0.5 µM and greater than 10 µM, respectively.

Turning to `C[C@@H]1CN(C(=O)c2cnc3ccc(F)cc3c2N2CCC3(CC2)OCCO3)C[C@H](C)O1` [Example 55, ((2S*,6R*)-2,6-dimethylmorpholino)(6-fluoro-4-(1,4-dioxa-8-azaspiro[4.5]decan-8-yl)quinolin-3-yl)methanone], the results for the IC50 on ALDH1A1 enzyme and in the assay on MIA PaCa-2 cells were 1 to 10 µM and greater than 10 µM, respectively.

In the case of `CCNC(=O)N1CCN(C(=O)c2cnc3ccc(F)cc3c2N2CCC3(CC2)OCCO3)CC1` [Example 56, N-ethyl-4-(6-fluoro-4-(1,4-dioxa-8-azaspiro[4.5]decan-8-yl)quinoline-3-carbonyl)piperazine-1-carboxamide], the 50% inhibitory concentration (IC50) was less than 0.5 µM at ALDH1A1 enzyme and greater than 10 µM in the assay with MIA PaCa-2 cells.

On to `O=C(c1cnc2ccc(F)cc2c1N1CCC2(CC1)OCCO2)N1CCOCC1` [Example 58, (6-fluoro-4-(1,4-dioxa-8-azaspiro[4.5]decan-8-yl)quinolin-3-yl)(morpholino)methanone], for which the results for the concentration for half-maximal inhibition (IC50) on ALDH1A1 enzyme and in the assay on MIA PaCa-2 cells were 0.5 to 1 µM and greater than 10 µM, respectively.

As for `COC1(C)CCN(c2c(C(=O)N3CCN(C(=O)C4CC4)CC3)cnc3ccc(F)cc23)CC1` [Example 61, (4-(cyclopropanecarbonyl)piperazin-1-yl)(6-fluoro-4-(4-methoxy-4-methylpiperidin-1-yl)quinolin-3-yl)methanone], the concentration for half-maximal inhibition (IC50) on ALDH1A1 enzyme is less than 0.5 µM; in the assay on MIA PaCa-2 cells, greater than 10 µM.

Take `O=C(c1cnc2ccc(F)cc2c1N1CCC2(CC1)COC2)N1CCN(C(=O)C2CC2)CC1` [Example 68, (4-(cyclopropanecarbonyl)piperazin-1-yl)(6-fluoro-4-(2-oxa-7-azaspiro[3.5]nonan-7-yl)quinolin-3-yl)methanone]: the concentration for half-maximal inhibition (IC50) is 1 to 10 µM on ALDH1A1 enzyme and greater than 10 µM with MIA PaCa-2 cells.

With `O=C(c1cnc2ccc(F)cc2c1N1CCC2(CC1)OCCO2)N1CCCN(C(=O)C2CC2)CC1` [Example 69, (4-(cyclopropanecarbonyl)-1,4-diazepan-1-yl)(6-fluoro-4-(1,4-dioxa-8-azaspiro[4.5]decan-8-yl)quinolin-3-yl)methanone], the IC50 is less than 0.5 µM on ALDH1A1 enzyme and greater than 10 µM with MIA PaCa-2 cells.

As to `CCC(=O)N1CCN(C(=O)c2cnc3ccc(F)cc3c2N2CCC3(CC2)OCCO3)CC1` [Example 70, 1-(4-(6-fluoro-4-(1,4-dioxa-8-azaspiro[4.5]decan-8-yl)quinoline-3-carbonyl)piperazin-1-yl)propan-1-one], the IC50 on ALDH1A1 enzyme was less than 0.5 µM; with MIA PaCa-2 cells it was 1 to 10 µM.

Consider `CC(C)C1CCN(c2c(C(=O)N3CCN(C(=O)C4CC4)CC3)cnc3ccc(F)cc23)CC1` [Example 74, (4-(cyclopropanecarbonyl)piperazin-1-yl)(6-fluoro-4-(4-isopropylpiperidin-1-yl)quinolin-3-yl)methanone], for which the results for the concentration for half-maximal inhibition (IC50) at ALDH1A1 enzyme and in the assay on MIA PaCa-2 cells were less than 0.5 µM and 1 to 10 µM, respectively.

For `CCOC(=O)N1CCN(C(=O)c2cnc3ccc(F)cc3c2N2CCC(C)(C#N)CC2)CC1` [Example 88, Ethyl 4-(4-(4-cyano-4-methylpiperidin-1-yl)-6-fluoroquinoline-3-carbonyl)piperazine-1-carboxylate], the IC50 is less than 0.5 µM at ALDH1A1 enzyme and greater than 10 µM in the assay on MIA PaCa-2 cells.

A word on the IC50: it is the midpoint of a concentration-inhibition curve.
